Source: BindingDB's records for patent US20240115574 (The Johns Hopkins University, 2024)

Target: T1, Sphingomyelin phosphodiesterase 3 (Homo sapiens, UniProt Q9NY59)
T1 sequence (Q9NY59 whole entry): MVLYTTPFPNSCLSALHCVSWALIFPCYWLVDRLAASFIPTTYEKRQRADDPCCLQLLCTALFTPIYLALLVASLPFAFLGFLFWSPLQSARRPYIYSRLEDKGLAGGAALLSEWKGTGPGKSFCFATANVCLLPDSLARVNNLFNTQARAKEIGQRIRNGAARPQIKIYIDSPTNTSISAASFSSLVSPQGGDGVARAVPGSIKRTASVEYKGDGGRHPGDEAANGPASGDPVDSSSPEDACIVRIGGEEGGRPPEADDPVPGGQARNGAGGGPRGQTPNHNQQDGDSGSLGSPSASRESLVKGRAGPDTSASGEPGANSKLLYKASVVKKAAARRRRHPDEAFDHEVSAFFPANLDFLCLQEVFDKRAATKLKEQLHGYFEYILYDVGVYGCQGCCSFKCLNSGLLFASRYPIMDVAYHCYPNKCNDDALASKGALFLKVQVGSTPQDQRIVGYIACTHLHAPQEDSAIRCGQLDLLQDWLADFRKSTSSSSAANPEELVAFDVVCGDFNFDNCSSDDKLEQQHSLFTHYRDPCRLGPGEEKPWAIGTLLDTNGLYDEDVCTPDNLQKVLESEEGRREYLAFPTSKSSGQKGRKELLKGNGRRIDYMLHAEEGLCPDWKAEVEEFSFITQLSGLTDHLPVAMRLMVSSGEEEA
Test: Not found
From the text: Not found

IC50 [µM] | Structure (SMILES)
> 100 | COc1ccc(-c2c(C)nn3c(N4CC[C@@H](NC(C)=O)C4)cc(C)nc23)cc1OC [US20240115574, Entry 7-PROV]
> 100 | COc1ccc(-c2nn(C)c3c(N4CC[C@@H](NC(C)=O)C4)nc(C)nc23)cc1OC [US20240115574, Entry 13-PROV]
> 100 | COc1ccc(-n2cnc3c(N4CC[C@@H](NC(C)=O)C4)ncnc32)cc1OC [US20240115574, Entry 6-PROV]
> 100 | COc1ccc(-n2cnc3c(N4CC[C@@H](NC(C)=O)C4)nc(C)nc32)cc1OC [US20240115574, Entry 2-PROV]
> 100 | COc1ccc(-c2c3nc(C)nc(N4CC[C@@H](NC(C)=O)C4)c3nn2C)cc1OC [US20240115574, Entry 12-PROV]
> 100 | COc1ccc(-n2c(C)nc3c(N4CC[C@@H](NC(C)=O)C4)ncnc32)cc1OC [US20240115574, Entry 5-PROV]
> 100 | COc1ccc(-n2ncc3c(N4CC[C@@H](NC(C)=O)C4)nc(C)nc32)cc1OC [US20240115574, Entry 10-PROV]
> 100 | COc1ccc(-c2c(C)nn3c(N4CC[C@@H](NC(C)=O)C4)nc(C)nc23)cc1OC [US20240115574, Entry 36-PROV]
